Earlier results, collected in paper PMC9516332 (Frontiers in Oncology, 2022).
Read-outs that look alike come from different tables or passages of the source.

Tests used:
Conditions in all cases: cited from earlier work
[1] = target: panel of 255 wild-type kinases (Homo sapiens, UniProt O14578)
[2] = target: T1, panel of 255 wild-type kinases (Homo sapiens, UniProt O60285)
T1 sequence (O60285 1-661): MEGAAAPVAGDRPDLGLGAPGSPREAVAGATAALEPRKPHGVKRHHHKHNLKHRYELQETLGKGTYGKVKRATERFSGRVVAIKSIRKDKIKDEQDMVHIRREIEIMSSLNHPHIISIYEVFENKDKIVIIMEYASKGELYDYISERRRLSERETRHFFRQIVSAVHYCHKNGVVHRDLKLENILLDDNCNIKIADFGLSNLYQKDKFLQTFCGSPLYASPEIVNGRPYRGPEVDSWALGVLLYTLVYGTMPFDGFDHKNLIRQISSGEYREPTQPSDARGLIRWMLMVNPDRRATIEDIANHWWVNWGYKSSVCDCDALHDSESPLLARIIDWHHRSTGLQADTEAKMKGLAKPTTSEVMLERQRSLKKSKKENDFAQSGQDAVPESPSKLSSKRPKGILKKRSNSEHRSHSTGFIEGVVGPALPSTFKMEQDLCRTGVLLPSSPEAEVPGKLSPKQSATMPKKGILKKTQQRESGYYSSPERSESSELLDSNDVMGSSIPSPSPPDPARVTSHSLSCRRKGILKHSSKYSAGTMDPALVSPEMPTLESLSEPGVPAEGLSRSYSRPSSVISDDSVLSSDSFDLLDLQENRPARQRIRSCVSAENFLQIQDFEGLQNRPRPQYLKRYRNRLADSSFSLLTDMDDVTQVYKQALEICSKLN

[3] = target: panel of 255 wild-type kinases (Homo sapiens, UniProt P29376)
[4] = target: panel of 255 wild-type kinases (Homo sapiens, UniProt P42684)
[5] = target: panel of 255 wild-type kinases (Homo sapiens, UniProt Q07912)
[6] = target: panel of 255 wild-type kinases (Homo sapiens, UniProt Q16620)
[7] = target: T2, panel of 255 wild-type kinases (Homo sapiens, UniProt Q8IWQ3)
T2 sequence (Q8IWQ3 1-736): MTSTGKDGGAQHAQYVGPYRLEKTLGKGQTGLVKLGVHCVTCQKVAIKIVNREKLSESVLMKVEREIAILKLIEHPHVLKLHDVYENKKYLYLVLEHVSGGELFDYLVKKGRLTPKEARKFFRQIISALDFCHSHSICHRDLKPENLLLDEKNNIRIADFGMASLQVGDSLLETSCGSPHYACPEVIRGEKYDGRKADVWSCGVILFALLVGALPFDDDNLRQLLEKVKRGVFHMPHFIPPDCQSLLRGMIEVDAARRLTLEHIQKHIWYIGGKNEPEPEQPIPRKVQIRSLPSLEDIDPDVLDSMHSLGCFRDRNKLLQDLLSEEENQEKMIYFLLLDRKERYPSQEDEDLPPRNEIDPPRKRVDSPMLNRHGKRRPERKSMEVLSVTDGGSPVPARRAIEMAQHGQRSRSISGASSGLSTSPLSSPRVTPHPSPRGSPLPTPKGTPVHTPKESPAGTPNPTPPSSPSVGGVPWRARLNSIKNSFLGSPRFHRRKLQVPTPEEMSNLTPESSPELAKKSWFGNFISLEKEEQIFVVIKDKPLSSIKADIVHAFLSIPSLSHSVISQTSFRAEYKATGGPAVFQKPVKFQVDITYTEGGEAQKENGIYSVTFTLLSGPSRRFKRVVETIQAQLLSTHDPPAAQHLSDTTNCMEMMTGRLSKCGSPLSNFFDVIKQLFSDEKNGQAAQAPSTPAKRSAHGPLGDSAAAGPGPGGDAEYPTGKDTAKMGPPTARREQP

[8] = target: panel of 255 wild-type kinases (Homo sapiens, UniProt Q8N568)
[9] = target: T3, panel of 255 wild-type kinases (Homo sapiens, UniProt Q96KB5)
T3 sequence (Q96KB5 1-322): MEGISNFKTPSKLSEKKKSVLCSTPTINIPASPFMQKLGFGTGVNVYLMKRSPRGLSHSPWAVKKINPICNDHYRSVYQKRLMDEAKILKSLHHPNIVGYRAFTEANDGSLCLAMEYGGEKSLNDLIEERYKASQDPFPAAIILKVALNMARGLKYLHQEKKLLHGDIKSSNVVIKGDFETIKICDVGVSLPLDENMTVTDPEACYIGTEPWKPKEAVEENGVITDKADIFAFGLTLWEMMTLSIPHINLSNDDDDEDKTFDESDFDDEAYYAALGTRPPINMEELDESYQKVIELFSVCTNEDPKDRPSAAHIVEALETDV

[10] = target: panel of 255 wild-type kinases (Homo sapiens, UniProt Q9UKE5)
[11] = target: panel of 255 wild-type kinases (Homo sapiens, UniProt Q9Y3S1)
[12] = kinase CRIK, 1 µmol/L single concentration, ref DOI: 10.1158/1535-7163.MCT-18-0877
[13] = NuaK1, 1 µmol/L single concentration, ref DOI: 10.1158/1535-7163.MCT-18-0877
[14] = kinase LTK, 1 µmol/L single concentration, ref DOI: 10.1158/1535-7163.MCT-18-0877
[15] = ARG kinase assay, 1 µmol/L single concentration, ref DOI: 10.1158/1535-7163.MCT-18-0877
[16] = ACK kinase assay, 1 µmol/L single concentration, ref DOI: 10.1158/1535-7163.MCT-18-0877
[17] = kinase TRKB, 1 µmol/L single concentration, ref DOI: 10.1158/1535-7163.MCT-18-0877
[18] = BRSK2 kinase assay, 1 µmol/L single concentration, ref DOI: 10.1158/1535-7163.MCT-18-0877
[19] = kinase DCAMKL2, 1 µmol/L single concentration, ref DOI: 10.1158/1535-7163.MCT-18-0877
[20] = kinase PBK, 1 µmol/L single concentration, ref DOI: 10.1158/1535-7163.MCT-18-0877
[21] = kinase TNIK, 1 µmol/L single concentration, ref DOI: 10.1158/1535-7163.MCT-18-0877
[22] = kinase WNK2, 1 µmol/L single concentration, ref DOI: 10.1158/1535-7163.MCT-18-0877
[23] = kinase CRIK, 1 µmol/L single concentration, ref DOI: 10.1371/journal.pone.0092146
[24] = NuaK1, 1 µmol/L single concentration, ref DOI: 10.1371/journal.pone.0092146
[25] = kinase LTK, 1 µmol/L single concentration, ref DOI: 10.1371/journal.pone.0092146
[26] = ARG kinase assay, 1 µmol/L single concentration, ref DOI: 10.1371/journal.pone.0092146
[27] = ACK kinase assay, 1 µmol/L single concentration, ref DOI: 10.1371/journal.pone.0092146
[28] = kinase TRKB, 1 µmol/L single concentration, ref DOI: 10.1371/journal.pone.0092146
[29] = BRSK2 kinase assay, 1 µmol/L single concentration, ref DOI: 10.1371/journal.pone.0092146
[30] = kinase DCAMKL2, 1 µmol/L single concentration, ref DOI: 10.1371/journal.pone.0092146
[31] = kinase PBK, 1 µmol/L single concentration, ref DOI: 10.1371/journal.pone.0092146
[32] = kinase WNK2, 1 µmol/L single concentration, ref DOI: 10.1371/journal.pone.0092146

Compound	%-inhibition at 1 µmol/L, CRIK [1, 12]	%-inhibition, NuaK1 [2, 13]	%-inhibition at 1 µmol/L, LTK [3, 14]	%-inhibition ARG [4, 15]	%-inhibition ACK [5, 16]	%-inhibition at 1 µmol/L, TRKB [6, 17]	%-inhibition BRSK2 [7, 18]	%-inhibition at 1 µmol/L, DCAMKL2 [8, 19]	%-inhibition at 1 µmol/L, PBK [9, 20]	%-inhibition at 1 µmol/L, TNIK [10, 21]	%-inhibition at 1 µmol/L, WNK2 [11, 22]	other results
O=C(c1ccc(F)c(F)c1Nc1ccc(I)cc1F)N1CC(O)([C@@H]2CCCCN2)C1 [cobimetinib]	0.417%	2.32%	2.85%	-1.54%	7%	-1.39%	3%	-9%	76%	1.06%	5%	–
CO[C@@H]1[C@H](N(C)C(=O)c2ccccc2)C[C@H]2O[C@]1(C)n1c3ccccc3c3c4c(c5c6ccccc6n2c5c31)C(=O)NC4 [midostaurin]	1.32%	101%	90%	25%	102%	99%	90%	8%	-7%	94%	0.935%	–
C=CC(=O)N1CCC[C@@H](n2nc(-c3ccc(Oc4ccccc4)cc3)c3c(N)ncnc32)C1 [ibrutinib]	-0.165%	7%	2.76%	7%	73%	26%	16%	-9%	-9%	-1.62%	5.67%	–
C[C@@H](Oc1cc(-c2cnn(C3CCNCC3)c2)cnc1N)c1c(Cl)ccc(F)c1Cl [crizotinib]	–	–	–	–	–	–	–	–	–	–	–	%-inhibition at 1 µmol/L, CRIK [1, 23]: -12%; %-inhibition, NuaK1 [2, 24]: 99%; %-inhibition at 1 µmol/L, LTK [3, 25]: 102%; %-inhibition ARG [4, 26]: 80%; %-inhibition ACK [5, 27]: 56%; %-inhibition at 1 µmol/L, TRKB [6, 28]: 102%; %-inhibition BRSK2 [7, 29]: 8%; %-inhibition at 1 µmol/L, DCAMKL2 [8, 30]: 49%; %-inhibition at 1 µmol/L, PBK [9, 31]: -14%; %-inhibition at 1 µmol/L, TNIK [10]: 11%; %-inhibition at 1 µmol/L, WNK2 [11, 32]: -4%
Cc1cc(Nc2ncc(Cl)c(Nc3ccccc3S(=O)(=O)C(C)C)n2)c(OC(C)C)cc1C1CCNCC1 [ceritinib]	-0.933%	17%	100%	-1.08%	103%	20%	24%	85%	-11%	25%	-1.28%	–
CC(C)(C)c1nc(-c2cccc(NS(=O)(=O)c3c(F)cccc3F)c2F)c(-c2ccnc(N)n2)s1 [dabrafenib]	–	–	–	–	–	–	–	–	–	–	–	%-inhibition at 1 µmol/L, CRIK [1, 23]: -2.74%; %-inhibition, NuaK1 [2, 24]: 7%; %-inhibition at 1 µmol/L, LTK [3, 25]: 2.67%; %-inhibition ARG [4, 26]: 54%; %-inhibition ACK [5, 27]: 24%; %-inhibition at 1 µmol/L, TRKB [6, 28]: 86%; %-inhibition BRSK2 [7, 29]: 30%; %-inhibition at 1 µmol/L, DCAMKL2 [8, 30]: 19%; %-inhibition at 1 µmol/L, PBK [9, 31]: 12%; %-inhibition at 1 µmol/L, TNIK ([10]; kinase TNIK, 1 µmol/L single concentration, ref DOI: 10.1371/journal.pone.0092146): 15%; %-inhibition at 1 µmol/L, WNK2 [11, 32]: 0.686%
C=CC(=O)Nc1cc(Nc2nccc(-c3cn(C)c4ccccc34)n2)c(OC)cc1N(C)CCN(C)C [osimertinib]	7%	48%	97%	5.35%	100%	-0.7%	-0.439%	-7%	77%	84%	4.6%	–
CC#CC(=O)N1CCC[C@H]1c1nc(-c2ccc(C(=O)Nc3ccccn3)cc2)c2c(N)nccn12 [acalabrutinib]	-5%	-3.51%	10%	3.53%	14%	14%	-10%	4.63%	-15%	-0.812%	0.787%	–
COc1cc(N2CCC(N3CCN(C)CC3)CC2)ccc1Nc1ncc(Cl)c(Nc2ccccc2P(C)(C)=O)n1 [brigatinib]	–	–	–	–	–	–	–	–	–	–	–	%-inhibition at 1 µmol/L, CRIK [1]: 3.33%; %-inhibition, NuaK1 [2]: 90%; %-inhibition at 1 µmol/L, LTK [3]: 100%; %-inhibition ARG [4]: 55%; %-inhibition ACK [5]: 104%; %-inhibition at 1 µmol/L, TRKB [6]: 27%; %-inhibition BRSK2 [7]: 77%; %-inhibition at 1 µmol/L, DCAMKL2 [8]: 52%; %-inhibition at 1 µmol/L, PBK [9]: 1.09%; %-inhibition at 1 µmol/L, TNIK [10]: 19%; %-inhibition at 1 µmol/L, WNK2 [11]: 0.119%
